Measured values reported in patent US9113629B2, “4-amino-6-(4-substituted-phenyl)-picolinates and 6-amino-2-(4-substituted-phenyl)-pyrimidine-4-carboxylates and their use as herbicides” (DOW AGROSCIENCES LLC, priority 2013, dated 2015).
Where two headings read alike, the source gives them in different places.

Tests used:
[1] = system: Key Grass and Sedge Weeds as well as Grass Crops; test: Post-emergent Test II herbicidal activity (Table 6); type: in vivo; settings: post-emergence, 336 h; for pest or weed control at 70 g/ha: 70 g ai/ha; for pest or weed control at 140 g/ha: 140 g ai/ha
Summary of the method: (§1)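 Foliar application at 187 L/ha to greenhouse-grown seedlings (first or second true leaf); subirrigation thereafter. Visual 0–100% injury at 14 d relative to untreated plants.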

[2] = system: Key Broadleaf Weed and Crop Species; test: Post-emergent Test II herbicidal activity (Table 5); type: in vivo; settings: post-emergence, 336 h, 14 days after application; for pest or weed control at 70 g/ha: application rate 70 g ai/ha; for pest or weed control at 140 g/ha: application rate 140 g ai/ha
Summary of the method: as §1

[3] = CYPES: yellow nutsedge (Cyperus esculentus), read-out: Visual Growth Reduction (%) 14 Days After Application, CYPES
[4] = DIGSA: crabgrass (Digitaria sanguinalis), read-out: Visual Growth Reduction (%) 14 Days After Application, DIGSA
[5] = ECHCG: barnyardgrass (Echinochloa crus-galli), read-out: Visual Growth Reduction (%) 14 Days After Application, ECHCG
[6] = ORYSA: rice (Oryza sativa), crop, read-out: Visual Growth Reduction (%) 14 Days After Application, ORYSA
[7] = SETFA: giant foxtail (Setaria faberi), read-out: Visual Growth Reduction (%) 14 Days After Application, SETFA
[8] = SORVU: grain sorghum (Sorghum vulgare), read-out: Visual Growth Reduction (%) 14 Days After Application, SORVU
[9] = TRZSS (wheat, Triticum aestivum), crop, read-out: Visual Growth Reduction (%) 14 Days After Application, TRZSS
[10] = ZEAMX: maize, corn (Zea mays), crop, read-out: Visual Growth Reduction (%) 14 Days After Application, ZEAMX
[11] = ABUTH: velvetleaf (Abutilon theophrasti), read-out: Visual Growth Reduction (%) 14 Days After Application, ABUTH
[12] = AMARE: redroot pigweed (Amaranthus retroflexus), read-out: Visual Growth Reduction (%) 14 Days After Application, AMARE
[13] = BRSNN: oilseed-rape, canola (Brassica napus), read-out: Visual Growth Reduction (%) 14 Days After Application, BRSNN
[14] = CHEAL: lambsquarters (Chenopodium album), read-out: Visual Growth Reduction (%) 14 Days After Application, CHEAL
[15] = EPHHL: wild poinsettia (Euphorbia heterophylla), read-out: Visual Growth Reduction (%) 14 Days After Application, EPHHL
[16] = HELAN: sunflower (Helianthus annuus), read-out: Visual Growth Reduction (%) 14 Days After Application, HELAN
[17] = VIOTR: wild pansy (Viola tricolor), read-out: Visual Growth Reduction (%) 14 Days After Application, VIOTR

COC(=O)c1nc(-c2ccccc2)c(F)c(N)c1Cl [Compound 181]
pest or weed control at 70 g/ha [1, 3]: 95 to 100% | pest or weed control at 140 g/ha [1, 3]: 95 to 100% | pest or weed control at 70 g/ha [1, 4]: 0 to 29% | pest or weed control at 140 g/ha [1, 4]: 0 to 29% | pest or weed control at 70 g/ha [1, 5]: 0 to 29% | pest or weed control at 140 g/ha [1, 5]: 0 to 29% | pest or weed control at 70 g/ha [1, 6]: 0 to 29% | pest or weed control at 140 g/ha [1, 6]: 0 to 29% | pest or weed control at 70 g/ha [1, 7]: 0 to 29% | pest or weed control at 140 g/ha [1, 7]: 0 to 29% | pest or weed control at 70 g/ha [1, 8]: 0 to 29% | pest or weed control at 140 g/ha [1, 8]: 30 to 44% | pest or weed control at 70 g/ha [1, 9]: 0 to 29% | pest or weed control at 140 g/ha [1, 9]: 0 to 29% | pest or weed control at 70 g/ha [1, 10]: 0 to 29% | pest or weed control at 140 g/ha [1, 10]: 30 to 44% | pest or weed control at 70 g/ha [2, 11]: 95 to 100% | pest or weed control at 140 g/ha [2, 11]: 95 to 100% | pest or weed control at 70 g/ha [2, 12]: 85 to 94% | pest or weed control at 140 g/ha [2, 12]: 95 to 100% | pest or weed control at 70 g/ha [2, 13]: 85 to 94% | pest or weed control at 140 g/ha [2, 13]: 95 to 100% | pest or weed control at 70 g/ha [2, 14]: 95 to 100% | pest or weed control at 140 g/ha [2, 14]: 95 to 100% | pest or weed control at 70 g/ha [2, 15]: 85 to 94% | pest or weed control at 140 g/ha [2, 15]: 95 to 100% | pest or weed control at 70 g/ha [2, 16]: 95 to 100% | pest or weed control at 140 g/ha [2, 16]: 95 to 100% | pest or weed control at 70 g/ha [2, 17]: 0 to 29% | pest or weed control at 140 g/ha [2, 17]: 0 to 29%
